Source: the NIST ThermoML archive (doi:10.1021/je700021f)
± gives the expanded uncertainty stated by the source.

Experiments:
[1] = 101 kPa, Liquid, Pulse-echo method
[2] = xn = mol fraction of the nth substance listed; conditions: 101 kPa, Liquid, Pulse-echo method, x1 = 1

CCCCCCCCCCl [1-chlorononane]
[1]
Conditions | speed of sound [m/s]
293.15 K | 1297.2 ± 3.4
298.15 K | 1278.2 ± 3.3
303.15 K | 1259.5 ± 3.3
308.15 K | 1240.9 ± 3.3
313.15 K | 1222.5 ± 3.2
318.15 K | 1204.3 ± 3.2
323.15 K | 1186.3 ± 3.2
328.15 K | 1168.4 ± 3.1
333.15 K | 1150.7 ± 3.1
338.15 K | 1133.2 ± 3.1
343.15 K | 1115.9 ± 3.1
348.15 K | 1098.8 ± 3
353.15 K | 1081.9 ± 3
358.15 K | 1065.1 ± 3
363.15 K | 1048.5 ± 3
368.15 K | 1032.2 ± 2.9
373.15 K | 1015.9 ± 2.9
378.15 K | 999.1 ± 2.9
383.15 K | 982.7 ± 2.9
388.15 K | 966.4 ± 2.8
393.15 K | 950.3 ± 2.8
398.15 K | 934.3 ± 2.8
403.15 K | 918.4 ± 2.8
408.15 K | 902.6 ± 2.8
413.15 K | 887 ± 2.7
418.15 K | 871.4 ± 2.7
423.15 K | 856 ± 2.7

CCCCCCCCC [nonane]
[1]
Conditions | speed of sound [m/s]
293.15 K | 1227.3 ± 3.2
298.15 K | 1207.2 ± 3.2
303.15 K | 1187.2 ± 3.2
308.15 K | 1167.3 ± 3.1
313.15 K | 1147.5 ± 3.1
318.15 K | 1127.8 ± 3.1
323.15 K | 1108.2 ± 3.1
328.15 K | 1088.7 ± 3
333.15 K | 1069.3 ± 3
338.15 K | 1050 ± 3
343.15 K | 1030.8 ± 2.9
348.15 K | 1011.8 ± 2.9
353.15 K | 992.8 ± 2.9
358.15 K | 973.9 ± 2.9
363.15 K | 955.2 ± 2.8
368.15 K | 936.5 ± 2.8
373.15 K | 917.9 ± 2.8
378.15 K | 899.5 ± 2.8
383.15 K | 881.1 ± 2.7
388.15 K | 862.9 ± 2.7
393.15 K | 844.7 ± 2.7
398.15 K | 826.7 ± 2.7
403.15 K | 808.8 ± 2.6
408.15 K | 790.9 ± 2.6
413.15 K | 773.2 ± 2.6
418.15 K | 755.6 ± 2.6
423.15 K | 738 ± 2.5

CCCCCCCCC [nonane] + CCCCCCCCCCl
[2]
Conditions | speed of sound [m/s]
293.15 K | 1227.3 ± 3.2
298.15 K | 1207.2 ± 3.2
303.15 K | 1187.2 ± 3.2
308.15 K | 1167.3 ± 3.1
313.15 K | 1147.5 ± 3.1
318.15 K | 1127.8 ± 3.1
323.15 K | 1108.2 ± 3.1
328.15 K | 1088.7 ± 3
333.15 K | 1069.3 ± 3
338.15 K | 1050 ± 3
343.15 K | 1030.8 ± 2.9
348.15 K | 1011.8 ± 2.9
353.15 K | 992.8 ± 2.9
358.15 K | 973.9 ± 2.9
363.15 K | 955.2 ± 2.8
368.15 K | 936.5 ± 2.8
373.15 K | 917.9 ± 2.8
378.15 K | 899.5 ± 2.8
383.15 K | 881.1 ± 2.7
388.15 K | 862.9 ± 2.7
393.15 K | 844.7 ± 2.7
398.15 K | 826.7 ± 2.7
403.15 K | 808.8 ± 2.6
408.15 K | 790.9 ± 2.6
413.15 K | 773.2 ± 2.6
418.15 K | 755.6 ± 2.6
423.15 K | 738 ± 2.5
